Reference: patent US4122184A, “Benzimidazole insecticides” (priority 1977, dated 1978)
Where “and” joins values, the source holds several entries; their conditions need not be identical. Equal entries are not always repeated.

Columns and labels:
[1] = system: Red-Legged Grasshopper Adults; test: Field trial, contact poison test; assay type: in vivo
Summary of the method: (§1)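 Infested host plants were kept in water-filled bottles with cellucotton around the stem and sprayed with different compound concentrations by atomizer at 10 psi from arm's length. Mortality was read at 24, 48 and 72 h on a 0–9 scale (0 = 0-10%, 9 = 91-100% mortality), averaged per concentration.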

Bean Leaf Beetle = test: Field trial, contact poison test; assay type: in vivo
Summary of the method: as §1

[2] = system: Southern Corn Rootworm Adults; test: Field trial, contact poison test; assay type: in vivo
Summary of the method: as §1

Boll Weevil = Boll Weevil Test; assay type: in vivo, Anthonomus grandis (Coleoptera); conditions: 48 h
Description: The procedure is identical to that employed for the Mexican bean beetle and the Southern armyworm, except that 10 adult boll weevils are placed on cotton leaves that have been dipped into formulations of the test compounds. The same rating scale is used.

Milkweed Bug = Milkweed Bug Test; assay type: in vivo, Oncopeltis fasciatus (Hemiptera); conditions: 48 h
Summary of the method: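 Ten chilled adult milkweed bugs per cage sprayed with 5 ml test formulation at 10 psi, then fed and watered. Mortality, counting moribund as dead, scored 48 h after spraying; 500 ppm malathion as reference, unsprayed cages as controls.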

House Fly [3] = test: Housefly (Stomach) Test; assay type: in vivo, Musca domestica (Diptera); conditions: 24 h
Summary of the method: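 Ten chilled house flies per covered dish were given sugar cubes treated with 0.2 ml of insecticide formulation at a specified level, one hour after leaving the chill room. Water-treated and 500 ppm malathion-treated cubes served as controls; mortality scored at 24 h on a rating scale.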

[4] = system: Southern Corn Rootworm Adults; test: Field trial, stomach poison test; assay type: in vivo; design: key: mortality rating on a 0 to 9 scale
Summary of the method: (§2)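 Leaves from infested plants sprayed (10 psi) or dipped in test compound at several concentrations, air-dried, then five or ten insects placed per dish, one or two replicates. Mortality scored 0 to 9 at 24, 48 and 72 h, averaged per concentration.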

[5] = system: Striped Cucumber Beetle Adults; test: Field trial, stomach poison test; assay type: in vivo; design: key: mortality rating on a 0 to 9 scale
Summary of the method: as §2

House Fly [6] = test: Housefly (Contact) Test; assay type: in vivo, Musca domestica (Diptera); conditions: 24 h
Picnic Beetle [7] = test: Field trial (first summer), topical; assay type: in vivo; conditions: .078125 μg/μl
Summary of the method: (§3)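 Field trial from the first summer in which 1 µl of test solution holding a set number of micrograms of benzimidazole was applied topically to larvae or adult insects. Mortality at a given route and concentration was scored on a 0–9 scale.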

Confused Flour Beetle = test: Field trial (first summer), topical; assay type: in vivo; conditions: .078125 μg/μl
Summary of the method: as §3

Picnic Beetle [8] = test: Field trial (first summer), stomach; assay type: in vivo; conditions: 250 ppm
Protocol: Leaves from the infested plant are treated with different concentrations of the test compounds, either by spraying with a DeVilbiss Special Atomizer (5004) at 10 psi or by dipping the leaves in solutions containing the compound. The leaves are then allowed to air dry.
After the leaves have dryed, they are placed in plastic petri dishes (100 × 25 mm), then the insects are counted out into each dish, five or ten insects per dish depending on the number of insects available. There are one or two replicates and usually two or three rates with each compound. Mortality results are taken at 24, 48 and 72 hours. The rating scale is 0 to 9.
(§4) During the previous summer similar field trials were conducted employing the same tests as heretofore but with some additional species of insects not included in the later tests. The results listed below are for tests in which an insect mortality was established by a given application route and at a given concentration in a particular test. The same 0 - 9 scoring system is used as is the designation of compounds by alphabetical symbols.

Milkweed Beetle = test: Field trial (first summer), contact; assay type: in vivo; conditions: 125 ppm
Description: (§5) Infested plants are placed in 6 oz. prescription bottles filled with water to keep them from wilting. Cellucotton is wrapped around the plant stem and squeezed into the bottle neck to prevent the insects from drowning.
(§6) A DeVilbiss Special Atomizer (5004) is used at 10 psi to spray the test plant with different concentrations of compounds. The atomizer is held at arm's length to prevent blowing the insects off the host plant. After treating, the bottles are placed on a table covered with brown wrapping paper to catch the dead insects as they drop from the plant. The plants are spaced so the leaves or plants are not touching one another.
(§7) The results are read at 24, 48, and 72 hours when applicable. The rating scale is 0 to 9 where 0 = 0-10 percent and 9 = 91-100 percent mortality.
as §4

Picnic Beetle [9] = test: Field trial (first summer), contact; assay type: in vivo; conditions: 250 ppm
Description: as §5, §6, §7, §4

Meadow Spittlebug = test: Field trial, stomach poison test; assay type: in vivo; conditions: 100 ppm
Summary of the method: as §2

| Substance | average mortality rating (Bean Leaf Beetle; 25 ppm) | average mortality rating (Bean Leaf Beetle; 50 ppm) | average mortality rating (Bean Leaf Beetle; 100 ppm) | average mortality rating ([2]; 25 ppm) | average mortality rating ([2]; 100 ppm) | mortality rating (Boll Weevil; 10 ppm) | mortality rating (Boll Weevil; 25 ppm) | mortality rating (Boll Weevil; 50 ppm) | mortality rating (Boll Weevil; 100 ppm) | mortality rating (Boll Weevil; 250 ppm) | mortality rating (Boll Weevil; 500 ppm) | mortality rating (Boll Weevil; 1000 ppm) | mortality rating (Milkweed Bug; 25 ppm) | mortality rating (Milkweed Bug; 250 ppm) | mortality rating (Milkweed Bug; 500 ppm) | mortality rating (Milkweed Bug; 1000 ppm) | mortality rating (House Fly [3]; 250 ppm) | mortality rating (House Fly [3]; 500 ppm) | mortality rating (House Fly [3]; 1000 ppm) | average mortality rating ([4]; 25 ppm) | further results |
| --- | --- | --- | --- | --- | --- | --- | --- | --- | --- | --- | --- | --- | --- | --- | --- | --- | --- | --- | --- | --- | --- |
| mixture of benzyl 2,6-bis(trifluoromethyl)-4-nitro-1-benzimidazolecarboxylate and benzyl 2,5-bis(trifluoromethyl)-7-nitro-1-benzimidazolecarboxylate | 0 (0-10 percent) | 2 | 7 | 4 | 9 (91-100 percent mortality) | 4.5 | 8.5 | 7 (71-80) | 9 (91-100) | 9 (91-100) | 9 (91-100) | 9 (91-100) | 0 (0-10) | 8 (81-90) | 8.5 | 9 (91-100) | 0 (0-10) | 4 (41-50) | 9 (91-100) | 1 | average mortality rating ([1]; 25 ppm): 9 (91-100 percent mortality); average mortality rating ([1]; 50 ppm): 9 (91-100 percent mortality); average mortality rating ([2]; 50 ppm): 4; mortality rating (Milkweed Bug; 10 ppm): 0 (0-10); mortality rating (Milkweed Bug; 50 ppm): 7 (71-80); average mortality rating ([4]; 50 ppm): 2; average mortality rating ([4]; 100 ppm): 4; average mortality rating ([5]; 10 ppm): 4; average mortality rating ([5]; 25 ppm): 4; average mortality rating ([5]; 50 ppm): 5; average mortality rating ([5]; 100 ppm): 7; mortality rating (House Fly [6]; 10 ppm): 0 (0-10); mortality rating (House Fly [6]; 25 ppm): 0 (0-10); mortality rating (House Fly [6]; 50 ppm): 4 (41-50); mortality rating (House Fly [6]; 100 ppm): 5.5; mortality rating (House Fly [6]; 250 ppm): 9 (91-100); mortality rating (House Fly [6]; 500 ppm): 9 (91-100); mortality rating (House Fly [6]; 1000 ppm): 9 (91-100); insect mortality rating (Picnic Beetle [7]): 9 (91-100 percent mortality); insect mortality rating (Confused Flour Beetle): 9 (91-100 percent mortality) |
| mixture of methyl 2,6-bis(trifluoromethyl)-4-nitro-1-benzimidazolecarboxylate and methyl 2,5-bis(trifluoromethyl)-7-nitro-1-benzimidazolecarboxylate | 0 (0-10 percent) | 0 (0-10 percent) | 1 | 5 and 3 | 9 (91-100 percent mortality) | 5.5 | 8.5 | 9 (91-100) | 9 (91-100) | 9 (91-100) | 9 (91-100) | 9 (91-100) | 5 (51-60) | 9 (91-100) | 9 (91-100) | 9 (91-100) | 2 (21-30) | 5.5 | 8.5 | 3 and 4 | insect mortality rating (Picnic Beetle [8]): 9 (91-100 percent mortality); mortality rating (Boll Weevil; 5 ppm): 0 (0-10); mortality rating (Milkweed Bug; 100 ppm): 8 (81-90); insect mortality rating (Milkweed Beetle): 9 (91-100 percent mortality); insect mortality rating (Picnic Beetle [9]): 9 (91-100 percent mortality); average mortality rating ([4]; 50 ppm): 4; average mortality rating ([4]; 100 ppm): 6; average mortality rating ([5]; 10 ppm): 2; average mortality rating ([5]; 25 ppm): 0 (0-10 percent); average mortality rating ([5]; 50 ppm): 5; average mortality rating ([5]; 100 ppm): 9 (91-100 percent mortality); average mortality rating (Meadow Spittlebug): 5; mortality rating (House Fly [6]; 10 ppm): 0 (0-10); mortality rating (House Fly [6]; 25 ppm): 0 (0-10); mortality rating (House Fly [6]; 50 ppm): 9 (91-100); mortality rating (House Fly [6]; 100 ppm): 9 (91-100); mortality rating (House Fly [6]; 250 ppm): 9 (91-100); mortality rating (House Fly [6]; 500 ppm): 9 (91-100); mortality rating (House Fly [6]; 1000 ppm): 9 (91-100); insect mortality rating (Picnic Beetle [7]): 9 (91-100 percent mortality) |
